Patent publication US7056275B2, “Radiotherapy” (Algeta A/S, priority 2000, dated 2006)
Read-outs that look alike come from different tables or passages of the source.

Experiments:
[1] = for Tissue distribution, Blood / Tissue distribution, Brain / Tissue distribution, Femur / Tissue distribution, Heart / Tissue distribution, Kidney / Tissue distribution, L.I. / Tissue distribution, Liver / Tissue distribution, Lung / Tissue distribution, Muscle / Tissue distribution, Rib / Tissue distribution, S.I. / Tissue distribution, Skull / Tissue distribution, Spleen / Tissue distribution, Stomach: +/- SD; for Femur/Blood ratio / Femur/Kidneys ratio / Femur/Liver ratio / Femur/Spleen ratio: Balb C mice; for femur to blood and femur to tissue ratios compared to cationic radium-223 (in words): chelates at 4 hours vs radium-223 at 6 hours after injection, for some organs
Protocol: The biodistribution of thorium and actinium bound to polyphosphonate was studied in mice.
Balb/C mice with a bodyweight in the range of 11–16 g were used in the biodistribution experiments. The compounds were administered by intravenous injection of 100–200 μl of the preparation for each animal in paired label arrangement. The compounds ^228Ac-DOTMP, ^227Th-DOTMP, ^227Th-DTMP and ^227Th-acetate/MES were investigated. Approximately 5 kBq of ^[…] and 5 kBq of ^228Ac was injected. Animals were sacrificed by cervical dislocation. The tissue distribution was determined on 3 mice for each pair of compounds. The tissue distribution was determined after 4 hours for ^228Ac-DOTMP, ^227Th-DOTMP, ^227Th-DTMP and ^227Th-acetate.
In general, radioactivity in the tissue samples was measured by using a NaI (Tl) well-type detector and by liquid scintillation counting (Beckmann LS6500, Beckmann, Fullerton, Calif., USA). ^227Th was measured by using a HPGe detector (Canberra, Conn, USA) and also by liquid scintillation counting after dissolution of tissue samples and allowing decay of ^228Ac. ^228Ac was measured by the HPGe detector and the NaI(Tl) detector.
Samples of the radioactive preparations of the nuclides were used as references to account for physical decay and radiation crossover in the detection procedures.

[2] = cationic species, mice, published data; cited from earlier work
[3] = 4 hours after injection, i.v., Balb/C mice
[4] = bone seeking chelates, 4 hours after injection
[5] = cationic radium-223, 6 hours after injection

SMILES	Tissue distribution, Blood [1, 3] [% I.D./g]	Tissue distribution, Brain [1, 3] [% I.D./g]	Tissue distribution, Femur [1, 3] [% I.D./g]	Tissue distribution, Heart [1, 3] [% I.D./g]	Tissue distribution, Kidney [1, 3] [% I.D./g]	Tissue distribution, L.I. [1, 3] [% I.D./g]	Tissue distribution, Liver [1, 3] [% I.D./g]	Tissue distribution, Lung [1, 3] [% I.D./g]	Tissue distribution, Muscle [1, 3] [% I.D./g]	Tissue distribution, Rib [1, 3] [% I.D./g]	Tissue distribution, S.I. [1, 3] [% I.D./g]	Tissue distribution, Skull [1, 3] [% I.D./g]	Tissue distribution, Spleen [1, 3] [% I.D./g]	Tissue distribution, Stomach [1, 3] [% I.D./g]	Femur/Blood ratio [1, 4]	Femur/Kidneys ratio [1, 4]	Femur/Liver ratio [1, 4]	Femur/Spleen ratio [1, 4]	femur to blood and femur to tissue ratios compared to cationic radium-223 (in words) [1]	further results
O=P([O-])(O)CN1CCN(CP(=O)([O-])O)CCN(CP(=O)([O-])O)CCN(CP(=O)([O-])O)CC1.[227Th+4] [Th-227 DOTMP]	<0.1	<0.1	20.55 ± 2.21	<0.1	3.43 ± 1.70	0.19 ± 0.10	0.39 ± 0.19	0.18 ± 0.09	0.29 ± 0.17	11.06 ± 3.81	0.14 ± 0.08	10.8 ± 2.94	0.51 ± 0.14	0.15 ± 0.05	>196	6.0	52.7	40.3	better	Tissue distribution, Urine ([1]; 4 hours after injection, i.v., Balb/C mice, n = 1): 21.1 % I.D./g
O=P([O-])(O)CN(CCN(CP(=O)([O-])O)CP(=O)([O-])O)CCN(CP(=O)([O-])O)CP(=O)(O)O.[227Th+4] [Th-227 DTMP]	<0.1	<0.1	19.58 ± 3.58	<0.1	1.38 ± 0.54	0.15 ± 0.03	0.40 ± 0.43	0.12 ± 0.04	0.63 ± 0.33	8.83 ± 5.06	0.56 ± 0.63	12.3 ± 3.14	0.13 ± 0.04	0.70 ± 0.80	>196	14.2	49	151	better	
CC(=O)[O-].CC(=O)[O-].CC(=O)[O-].CC(=O)[O-].[227Th+4] [^227Th-acetate, reference compound]	1.2 ± 0.4	<0.1	23.4 ± 6.9	2.6 ± 0.2	7.7 ± 0.7	1.7 ± 0.1	56.5 ± 9.4	2.6 ± 0.4	1.1	14.6 ± 4.4	2.3 ± 0.1	18.9 ± 7.6	14.2 ± 2.8	4.6 ± 1.0						bone uptake (in words) ([1]; 4 hours after injection, mice): high and similar to the observed values with the bone-seeking polyphosphonate complexing agents; suitability for in vivo bone targeting given affinity for soft tissues, e.g. liver and spleen (in words) ([1]; 4 hours after injection, mice): unsuitable for in vivo bone targeting
O=P([O-])(O)CN1CCN(CP(=O)([O-])O)CCN(CP(=O)(O)O)CCN(CP(=O)([O-])O)CC1.[228Ac+3] [Ac-228 DOTMP]	<0.1	<0.1	20.67 ± 2.23	<0.1	2.7 ± 2.4	0.20 ± 0.11	1.26 ± 0.9	0.20 ± 0.10	0.30 ± 0.11	10.5 ± 3.5	0.14 ± 0.07	10.7 ± 2.7	0.51 ± 0.10		>196	7.7	16.4	41.3	better	
[223Ra] [^223Ra, reference compound]																				Femur/Blood ratio [1, 5]: 129; Femur/Kidneys ratio [1, 5]: 6.4; Femur/Liver ratio [1, 5]: 29.1; Femur/Spleen ratio [1, 5]: 6.4
CC(=O)[O-].CC(=O)[O-].CC(=O)[O-].[Ac+3] [cationic actinium]																				selective bone uptake relative to soft tissue uptake (in words) [2]: does not show sufficient selective bone uptake relative to soft tissue uptake
